Data reported in PubChem BioAssay AID2060624 (Molecular Pharmacology Branch, DTP, NCI, 2025).

System: 217524-143-R1-J4-PDC spheroids with HUVEC/MSC, viability
Assay: Anticancer human tumor 217524-143-R1-J4-PDC patient-derived pancreatic carcinoma cell line growth inhibition [CLK]
Settings: for IC50: curve of first compound; for viability, T/C: stronger effect = lower value; active means viability on the fitted dose curve at most 10% of control; inactive means the rest
From the text: A high-throughput screen of multi-cell type tumor spheroids was designed to identify active combinations of […] and targeted small molecules. Complex spheroids include a stromal component modeled by human endothelial cells (HUVEC) and fibroblasts modeled by human mesenchymal stem cells (MSCs). The concentration ranges selected for each drug and investigational agent were based upon clinically achievable concentrations if the clinical Cmax of the agent was known.
Compounds. The drugs and investigational agents: cirtuvivint (SM08502; NSC835563), CC-671 (NSC850746), vemurafenib (NSC761431), tapotoclax (NSC804041), sotorasib (NSC818433), adagrasib (NSC831453), MRTX-1133 (NSC836407), BAY2416964 (NSC825713), copanlisib (NSC816437), inavolisib (NSC800729), abemaciclib (NSC768073), osimertinib (NSC779217), entinostat (NSC756642), eltanexor (KPT-8602, NSC794443), venetoclax (NSC766270), ceralasertib (NSC777638), bortezomib (NSC756655), olaparib (NSC753686), talazoparib (NSC767125), alisertib (NSC759677), peposertib (NSC802822), gemcitabine (NSC613327), 5-fluorouracil (NSC19893), SN-38 (NSC673596), oxaliplatin (NSC266046), paclitaxel (NSC125973), and doxorubicin (NSC123127), were obtained from the National Cancer Institute (NCI) Developmental Therapeutics Program Chemical Repository. The FDA-approved anticancer drug set is available from the Developmental Therapeutics Program at https://dtp.cancer.gov/organization/dscb/obtaining/available plates.htm. […] The stock solutions were prepared in dimethyl sulfoxide (DMSO, Sigma-Aldrich, St. Louis, MO, cat. D2650), except for the platinum complexes which were prepared in saline (Quality Biological, Gaithersburg, MD, cat. 114-055-101), at 800-fold the tested concentration and stored at -70 degrees C prior to their use. All drugs and investigational agents were tested over a range starting from a high concentration at or near the clinical Cmax and decreasing in half-log increments. If the clinical Cmax for an agent had not been determined, the highest concentration tested was 10 microM.
Cell Culture. All cells were maintained in an incubator at 37 degrees C and 5% CO2 with 95% humidity. The PDC lines were cultured according to standard operating procedures established by the NCI PDMR. Briefly, all PDCs were thawed and cultured in Matrigel-coated flasks prepared with a working solution of 1X Ham's F-12 nutrient mix, without supplementation (Invitrogen, Waltham, MA, cat. 11765054), 100 U/mL penicillin-streptomycin (Invitrogen, cat. 15140122), and 2.5% Matrigel (Corning Inc., Corning, NY, cat. 354248) for the first three passages. The 947758-054-R-J2-PDC line was cultured in 6B/Colon 1A media, which includes advanced DMEM/F-12 (Thermo Fisher Scientific, cat. 12634028), 10 mM HEPES (Thermo Fisher Scientific, cat. 15630080), 1X GlutaMAX supplement (Thermo Fisher Scientific, cat. 35050061), 0.1 mg/mL primocin (InvivoGen, cat. ant-pm-2), 10% defined fetal bovine serum, heat inactivated (HyClone Laboratories Inc., cat. SH30070.03HI), 1.25 mM N-Acetyl-L-cysteine (Sigma-Aldrich, cat. A9165), 10 mM nicotinamide (Sigma-Aldrich, cat. N0636), 1X B-27 supplement (Thermo Fisher Scientific, cat. 17504044), 1X N-2 supplement (Thermo Fisher Scientific, cat. 17502048), and 10 microM Y-27632 dihydrochloride (Tocris Bioscience, cat. 1254). The 876862-298-R-J1-PDC was cultured in 6E media, which includes all 6B/Colon 1A media components plus 50% L-WRN conditioned media (ATCC, cat. CRL-3276), 50 ng/mL recombinant human EGF recombinant protein (hEGF; Thermo Fisher Scientific, cat. PHG0311), 10 ng/mL recombinant human fibroblast growth factor 10 (hGFG-10; PeproTech, cat. 100-26), 1 ng/mL recombinant human fibroblast growth factor 2 (hFGF-2; PeproTech, cat. 100-18B), and 1 µM prostaglandin E2 (PGE2; Tocris, cat. 2296). The 227483-062-R1-J1-PDC line was cultured in Panc media, containing all 6E components except hFGF-2, with the addition of 500 nM SB-431542 (Selleckchem, cat. S1067) and 10 nM gastrin (Tocris, cat. 3006). […]

[1] = second compound 0.0316 µM, first compound 0.0316 µM
[2] = second compound 0.0316 µM, first compound 0.1 µM
[3] = second compound 0.0316 µM, first compound 0.316 µM
[4] = second compound 0.0316 µM, first compound 1 µM
[5] = second compound 0.0316 µM, first compound 3.16 µM
[6] = second compound 0.0316 µM, first compound 10 µM
[7] = second compound 0.1 µM, first compound 0.0316 µM
[8] = second compound 0.1 µM, first compound 0.1 µM
[9] = second compound 0.1 µM, first compound 0.316 µM
[10] = second compound 0.1 µM, first compound 1 µM
[11] = second compound 0.1 µM, first compound 3.16 µM
[12] = second compound 0.1 µM, first compound 10 µM
[13] = second compound 0.316 µM, first compound 0.0316 µM
[14] = second compound 0.316 µM, first compound 0.1 µM
[15] = second compound 0.316 µM, first compound 0.316 µM
[16] = second compound 0.316 µM, first compound 1 µM
[17] = second compound 0.316 µM, first compound 3.16 µM
[18] = second compound 0.316 µM, first compound 10 µM
[19] = second compound 1 µM, first compound 0.0316 µM
[20] = second compound 1 µM, first compound 0.1 µM
[21] = second compound 1 µM, first compound 0.316 µM
[22] = second compound 1 µM, first compound 1 µM
[23] = second compound 1 µM, first compound 3.16 µM
[24] = second compound 1 µM, first compound 10 µM
[25] = second compound 3.16 µM, first compound 0.0316 µM
[26] = second compound 3.16 µM, first compound 0.1 µM
[27] = second compound 3.16 µM, first compound 0.316 µM
[28] = second compound 3.16 µM, first compound 1 µM
[29] = second compound 3.16 µM, first compound 3.16 µM
[30] = second compound 3.16 µM, first compound 10 µM
[31] = second compound 10 µM, first compound 0.0316 µM
[32] = second compound 10 µM, first compound 0.1 µM
[33] = second compound 10 µM, first compound 0.316 µM
[34] = second compound 10 µM, first compound 1 µM
[35] = second compound 10 µM, first compound 3.16 µM
[36] = second compound 10 µM, first compound 10 µM
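Further: spheroids exposed to agents for seven days before reading.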

C#Cc1c(F)ccc2cc(O)cc(-c3ncc4c(N5CC6CCC(C5)N6)nc(OCC56CCCN5CC(F)C6)nc4c3F)c12 (stereo unspecified) + CN1CCN(c2cc(C(=O)Nc3cc4cc(-c5cnn(C)c5)ccc4cn3)ccn2)CC1
3210 nM: IC50 (second compound 0.1 µM)
inactive: viability, T/C [1] 76.1% | viability, T/C [2] 74.4% | viability, T/C [3] 65.5% | viability, T/C [4] 85.1% | viability, T/C [5] 81.1% | viability, T/C [6] 55% | viability, T/C [7] 53.6% | viability, T/C [8] 46.2% | viability, T/C [9] 53.2% | viability, T/C [10] 55.5% | viability, T/C [11] 49.3% | viability, T/C [12] 37% | viability, T/C [13] 28.3% | viability, T/C [14] 23.9% | viability, T/C [15] 25.2% | viability, T/C [16] 21.6% | viability, T/C [17] 24.8% | viability, T/C [18] 18%
active: viability, T/C [19] 2.18% | viability, T/C [20] 2.28% | viability, T/C [21] 3.15% | viability, T/C [22] 2.36% | viability, T/C [23] 1.66% | viability, T/C [24] 2.26% | viability, T/C [25] 0.79% | viability, T/C [26] 0.88% | viability, T/C [27] 0.86% | viability, T/C [28] 0.96% | viability, T/C [29] 0.86% | viability, T/C [30] 0.79% | viability, T/C [31] 0.25% | viability, T/C [32] 0.25% | viability, T/C [33] 0.2% | viability, T/C [34] 0.23% | viability, T/C [35] 0.23% | viability, T/C [36] 0.43%
< 31.6 nM: IC50 (second compound 0.316 µM) | IC50 (second compound 1 µM) | IC50 (second compound 3.16 µM) | IC50 (second compound 10 µM)
> 10000 nM: IC50 (second compound 0.0316 µM)

C=C(F)C(=O)N1CCN(c2nc(OCC3CCCN3C)nc3c2CCN(c2cccc4cccc(Cl)c24)C3)CC1CC#N (stereo unspecified) + CN1CCN(c2cc(C(=O)Nc3cc4cc(-c5cnn(C)c5)ccc4cn3)ccn2)CC1
5100 nM: IC50 (second compound 0.0316 µM)
inactive: viability, T/C [1] 71.2% | viability, T/C [2] 89.9% | viability, T/C [3] 91.9% | viability, T/C [4] 87.9% | viability, T/C [5] 82.2% | viability, T/C [7] 61.6% | viability, T/C [8] 54.7% | viability, T/C [9] 53.9% | viability, T/C [10] 50.8% | viability, T/C [11] 49.1% | viability, T/C [13] 25% | viability, T/C [14] 24.5% | viability, T/C [15] 31% | viability, T/C [16] 22.8% | viability, T/C [17] 18.4% | viability, T/C [18] 1.05%
< 31.6 nM: IC50 (second compound 0.316 µM) | IC50 (second compound 1 µM) | IC50 (second compound 3.16 µM) | IC50 (second compound 10 µM)
2300 nM: IC50 (second compound 0.1 µM)
active: viability, T/C [6] 4.47% | viability, T/C [12] 3.1% | viability, T/C [19] 1.86% | viability, T/C [20] 2.01% | viability, T/C [21] 2.61% | viability, T/C [22] 1.74% | viability, T/C [23] 1.47% | viability, T/C [24] 0.1% | viability, T/C [25] 0.87% | viability, T/C [26] 1.12% | viability, T/C [27] 0.66% | viability, T/C [28] 0.73% | viability, T/C [29] 0.71% | viability, T/C [30] 0.13% | viability, T/C [31] 0.3% | viability, T/C [32] 0.27% | viability, T/C [33] 0.3% | viability, T/C [34] 0.31% | viability, T/C [35] 0.44% | viability, T/C [36] 0.22%

CC(CO)NC(=O)c1cc(-c2ccc(Cl)cc2)nn(-c2cnn(C)c2)c1=O (stereo unspecified) + CN1CCN(c2cc(C(=O)Nc3cc4cc(-c5cnn(C)c5)ccc4cn3)ccn2)CC1
active: viability, T/C [19] 1.96% | viability, T/C [20] 2.25% | viability, T/C [21] 2.62% | viability, T/C [22] 1.95% | viability, T/C [23] 1.85% | viability, T/C [24] 1.4% | viability, T/C [25] 1.05% | viability, T/C [26] 1.27% | viability, T/C [27] 0.89% | viability, T/C [28] 0.99% | viability, T/C [29] 0.97% | viability, T/C [30] 0.84% | viability, T/C [31] 0.26% | viability, T/C [32] 0.3% | viability, T/C [33] 0.26% | viability, T/C [34] 0.29% | viability, T/C [35] 0.33% | viability, T/C [36] 0.27%
inactive: viability, T/C [1] 81% | viability, T/C [2] 83.5% | viability, T/C [3] 68.8% | viability, T/C [4] 71.7% | viability, T/C [5] 92% | viability, T/C [6] 54.1% | viability, T/C [7] 73.4% | viability, T/C [8] 53.2% | viability, T/C [9] 47.8% | viability, T/C [10] 51% | viability, T/C [11] 53.9% | viability, T/C [12] 39.6% | viability, T/C [13] 14.4% | viability, T/C [14] 19.4% | viability, T/C [15] 18.1% | viability, T/C [16] 18.6% | viability, T/C [17] 19.8% | viability, T/C [18] 16.7%
< 31.6 nM: IC50 (second compound 0.316 µM) | IC50 (second compound 1 µM) | IC50 (second compound 3.16 µM) | IC50 (second compound 10 µM)
229 nM: IC50 (second compound 0.1 µM)
> 10000 nM: IC50 (second compound 0.0316 µM)
